From the NIST ThermoML archive (doi:10.1021/je800751m)

Assay: excess molar enthalpy (molar enthalpy of mixing); xn = mol fraction of the nth substance listed
Conditions: 298.15 K, 101 kPa, Liquid, Flow calorimetry

C1CCCCC1 [cyclohexane] + CCCCO
Conditions | excess molar enthalpy [kcal/mol]
x1 = 0.0503 | 0.0163
x1 = 0.0998 | 0.0346
x1 = 0.1502 | 0.052
x1 = 0.1998 | 0.0685
x1 = 0.2502 | 0.0836
x1 = 0.2997 | 0.0974
x1 = 0.35 | 0.1103
x1 = 0.4002 | 0.122
x1 = 0.4503 | 0.1321
x1 = 0.5003 | 0.1404
x1 = 0.5501 | 0.1466
x1 = 0.5997 | 0.1505
x1 = 0.6501 | 0.1517
x1 = 0.7002 | 0.1498
x1 = 0.7501 | 0.1445
x1 = 0.7996 | 0.1355
x1 = 0.85 | 0.123
x1 = 0.9 | 0.105
x1 = 0.9496 | 0.0799
